This assay relates to KMS.12.BM cell line (human myeloma). As to the kind of experiment: KMS.12.BM cell viability assay. The conditions noted are these: 3 days, Cell Titer-GLO ATP quantitation; concentration required for 50% cell death. Format: cell-based. Here is the method: KMS.12.BM cell line (human myeloma) was purchased from JCRB (Osaka, Japan) and maintained in RPMI with 10% FBS culture medium. To measure the cytotoxic activity of the compounds through ATP quantitation, the KMS.12.BM cells are plated in the RPMI culture medium at 5000 cells/well/per 100 μL into a 96-well polystyrene clear black tissue culture plate (Greiner-bio-one through VWR, NJ), in the presence or absence of a concentration range of test compounds. After 3 days, […] Cell Titer-GLO Luminescent (Promega, Madison, Wis.) cell culture agent is added to each well for 10 minutes at room temperature to stabilize the luminescent signal. This determines the number of viable cells in culture based on quantitation of the ATP present, which signals the presence of metabolically active cells. Luminescence is measured with the Top Count 384 (Packard Bioscience through Perkin Elmer, Boston, Mass.). Compound inhibition is determined relative to cells cultured with no drug and the IC50 is reported as the compound concentration required for 50% cell death.
On the technique in general: In ATP-based viability assays light output follows the ATP content of the culture.

For orientation: IC50 means the point on the concentration scale where inhibition reaches its midpoint. The low end stands for greater potency in that assay, the high end for weaker potency in that assay. `Cn1cc(-c2cc(S(C)(=O)=O)cc3c2NC2(CCC2)C(=O)N3)c2cc[nH]c2c1=O` [Example 62, 8′-(6-methyl-7-oxo-6,7-dihydro-1H-pyrrolo[2,3-c]pyridin-4-yl)-6′-(methylsulfonyl)-1,4′-dihydro-3H-spiro[cyclobutane-1,2′-quinoxalin]-3′-one] yielded an IC50 of at most 1 µM.

For the origin of these results see US11702416B2, “1H-pyrrolo[2,3-c]pyridin-7(6H)-ones and pyrazolo[3,4-c]pyridin-7(6H)-ones as inhibitors of BET proteins” (Incyte Corporation, priority 2014, dated 2023).
